{"source": "patent US4981842A", "about": "“Method of treating hormonal dependent mammary tumors in female mammals” (Roussel Uclaf, priority 1979, dated 1991)", "key": {"[1]": {"system": "testicular steroidogenesis", "assay": "Inhibitory activity against testicular steroidogenesis in men in good health, single intranasal dose", "format": "in vivo", "conditions": "for seric level of testosterone/steroids on the fourth day after administration: fourth day (until 6th day)", "experimental": "The inhibitory activity of [D Ser (tbu)^6 xdes Gly NH2^10 ]LH-RH ethylamide (described in German application Ser. No. 2,438,350) against testicular steroidogensis in men in good health was determined on men in good health aged 30 to 40 years. The said product was administered intranasally at a dose of 500 μg in a few drops of distilled water at 8 A.M. on the third day of the test. For 2 days prior to the treatment and for 6 days after the treatment, samples of blood were taken daily at 8 A.M., 3 P.M. and 10 P.M. On the day of administration of the LH-RH agonist, blood samples were taken at 11 A.M. and 6 P.M.\nThe seric concentrations of LH and FSH were measured by radioimmuno-logic dosages with double antibodies and the antiboides for measuring LH and FSH were furnished by the National Pituitary Agency of N.I.H. in Bethesda, Md. The seric concentrations of steroids was measured by radioimmuno-logic dosages in which one ml of serum was extracted with ether and the steroids were separated on a LH-20 column before measuring with radioimmuno-logic dosages. The radioimmuno-logic dosage results were determined by a program derived from model II of Rodbard et al [Second Karolinska Symposium on Research Methods in Reproductive Endroerinology, Diczfalusky Editer, Copenhague (1970), pp. 79-103]. The statistical significance was determined by the \"multiple level test\" of Duncan-Kramer [Kramer, Biometrics, vol. 12 (1956), p. 307]. The results are shown in the graphs on sheet 1 of the Figures filed herewith."}, "[2]": {"system": "testicular steroidogenesis", "assay": "Inhibitory activity on testicular steroidogenesis in a patient with prostate cancer", "format": "in vivo, human", "conditions": "intranasal 500 μg twice a day", "description": "The results are reported in the graphs of sheet 2 of the Figures."}, "[3]": {"system": "ovarian steroidogenesis", "assay": "Inhibitory activity on ovarian steroidogenesis in women", "format": "in vivo", "experimental": "The inhibitory activity of [D Ser (tbu)^6 xdes Gly NH2^10 ]LH-RH ethylamide on ovarian steroidogenosis in women was determined on 6 women aged 26 to 35 years with normal and regular menstrual cycles and without prior endocrinal or gynecological problems. The study was conducted for 6 consecutive cycles consisting of 2 pretreatment cycles, 2 treatment cycles and 2 post-treatment cycles. Two drops of a solution containing 500 μg of [D Ser (tbu)^6 xdes Gly NH2^10 ] LH-RH ethylamide were deposited on each nostril at 8 A.M. and 5 P.M. of a day between the 4th and 9th day after the peak of LH-day 0. Daily blood samples were taken between 4 and 6 P.M. to measure seric levels of LH, FSH, progesterone and estradiol which were determined by radioimmuno-logictests with double antibodies. The antibodies to measure LH and FSH were furnished by the National Pituitory Agency of N.I.H. of Bethesda, Md.\nEstradiol and progesterone were measured with highly specific antibodies developed against 7-(O-carboxymethyl)oxime of estradiol and 12-(O-carboxymethyl)-oxime of progesterone, respectively [3H] 17β-estradiol and ^125 I-progesterone -12-[O-carboxymethyl)-oxime]used as tracers. The serum was extracted with benzene and the steroids were separated with a LH-20 column before the determination. The radioimmunological results were exploited by the program derived from model II of Rodbard and Lewald as in Example 1 and the statistical significance was measured by the multiple level test of Ducan-Kramer of Example 1. The results are shown in the graphs of sheets 3 to 5 of the Figures."}, "[4]": {"system": "prostate and seminal vesicules", "assay": "Peptide in association with an antiandrogen: weight of prostate and seminal vesicles in rats", "format": "in vivo, rats of the Sprague-Dawley strain", "conditions": "14 days, 100 or 500 μg peptide s.c. plus 5 mg product A twice daily", "method": "The effect of the administration of [D Ser (tbu)^6 des Gly NH2^10 ] LH-RH ethylamide in association with an antiandrogen was determined on groups of 9 normal rats of the Sprague-Dawley strain weighing about 250 g. The rats received for 14 days a subcutaneous administration at 9 A.M. of D Ser(Tbu)^6 of Gly^10 LH-RH ethylamide at a dose of 20, 100 or 500 μg in physiological serum and at 9 A.M. and 4 P.M. doses of 1 or 5 mg of 5,5-dimethyl-3-[4-nitro-3-trifluoromethyl-phenyl]-2,4-imidazolidinedione (product A) in solution in seasame oil containing 5% of benzyl alcohol. One group of rats received only physiological serum and one group received only product A.\nThe animals were killed 24 hours after the last injection and the weight of the prostate and seminal vesicules of the rats were determined."}, "[5]": {"conditions": "intranasal 500 μg, 3rd day following administration"}, "[6]": {"conditions": "intranasal 500 μg at 8 A.M. and 5 P.M. of one day in luteal phase, typical subject (sheet 3)"}}}
{"compound": "CCNC(=O)[C@@H]1CCCN1C(=O)[C@H](CCCNC(=N)N)NC(=O)[C@H](CC(C)C)NC(=O)[C@@H](COC(C)(C)C)NC(=O)[C@H](Cc1ccc(O)cc1)NC(=O)[C@H](CO)NC(=O)[C@H](Cc1c[nH]c2ccccc12)NC(=O)[C@H](Cc1c[nH]cn1)NC(=O)[C@@H]1CCC(=O)N1", "note": "[[D Ser (tbu)^6 xdes Gly NH2^10] LH-RH ethylamide]", "values": [{"measurement": "concentration of 17-OH-progesterone relative to initial control values", "setting": "[1]; [5]", "result": 40, "unit": "%"}, {"measurement": "concentration of testosterone relative to initial control values", "setting": "[1]; [5]", "result": 50, "unit": "%"}, {"measurement": "seric concentration of pregnenolone, 17-OH-pregnenolone, progesterone, 17-OH-progesterone, Δ5-androstene-3β,17β-diol and testosterone on the day of treatment", "setting": "[1]; intranasal 500 μg, day of treatment", "result": "increased"}, {"measurement": "plasmatic levels of LH and FSH", "setting": "[1]; intranasal 500 μg, men", "result": "increase"}, {"measurement": "seric level of testosterone/steroids on the fourth day after administration", "setting": "[1]; single intranasal dose 500 μg", "result": "returned to normal"}, {"measurement": "seric level of testosterone/steroids on the fourth day after administration", "setting": "[1]; single intranasal dose 500 μg, listed as peptide", "result": "return to normal levels"}, {"measurement": "duration of the drop of seric levels of testicular steroids (testosterone and its precursors)", "setting": "[1]; single intranasal dose 500 μg, human", "result": 3, "unit": "days"}, {"measurement": "diminution of the level of testosterone", "setting": "[1]; single intranasal dose 500 μg, human, 3rd day following administration", "result": 50, "unit": "%"}, {"measurement": "level of androgenic steroids (plasma)", "setting": "[2]", "result": "diminution"}, {"measurement": "level of testosterone (plasma)", "setting": "[2]; two weeks of treatment", "result": "stabilized at a very low level"}, {"measurement": "reduction of the level of progesterone as compared to the controls", "setting": "[3]; 12 cycles of treatment (sheet 5)", "result": 46, "unit": "%"}, {"measurement": "progesterone level in cycles of post-treatment, pretreatment cycles as base of 100%", "setting": "[3]; 12 cycles, 6 women", "result": 99, "unit": "%"}, {"measurement": "progesterone level in cycles of treatment, pretreatment cycles as base of 100%", "setting": "[3]; 12 cycles, 6 women", "result": 46, "unit": "%"}, {"measurement": "reduction of seric levels of progesterone compared to controls, first cycle of treatment", "setting": "[3]; [6]", "result": 13, "unit": "%"}, {"measurement": "reduction of seric levels of progesterone compared to controls, second cycle of treatment", "setting": "[3]; [6]", "result": 34, "unit": "%"}, {"measurement": "level of seric progesterone over the 2 cycles of treatment (sheet 4)", "setting": "[3]; return to normal for the 2 cycles of post-treatment", "result": "accelerated diminution"}, {"measurement": "weight of the prostate", "setting": "[4]", "result": "Similar, but a little less marked"}, {"measurement": "weight of the seminal vesicules", "setting": "[4]", "result": "approached the weight of the seminal vesicules of castrated rats"}]}
